Article PMC7269481, “ZN148 Is a Modular Synthetic Metallo-β-Lactamase Inhibitor That Reverses Carbapenem Resistance in Gram-Negative Pathogens In Vivo” (Antimicrobial Agents and Chemotherapy, 2020)
Values after ≈ are worked out from the molar mass of the structure shown. Where two headings read alike, the source gives them in different places.

What was measured:
[1] = test system: class A carbapenemase (KPC)-producing E. cloacae; experiment: Carbapenem MIC, class A carbapenemase-producing E. cloacae; assay type: cell-based; conditions: carbapenem alone or with 50µM ZN148
Protocol: MICs of carbapenems alone and in combination with inhibitors were determined by broth microdilution according to the Clinical and Laboratory Standards Institute (CLSI) guidelines ([48]) using either premade plates (TREK Diagnostic Systems/Thermo Fisher Scientific, East Grinstead, United Kingdom) with meropenem or in-house-prepared plates with meropenem, imipenem, and doripenem. ZN148 and other inhibitors were tested at a fixed concentration of 50 μM. Cation-adjusted Mueller-Hinton medium (TREK Diagnostic Systems/Thermo Fisher Scientific; Becton Dickinson, Franklin Lakes, NJ) were used as growth medium. The plates were incubated for 20 h at 37°C. ZN148, ZN222, ZN223, ZN228, and TPA were initially tested in combination with meropenem using two indicator strains: NDM-1-producing K. pneumoniae ([49], [50]) and VIM-2-producing P. aeruginosa ([51]). The activity of ZN148 were subsequently tested against two extended strain collections: (i) in combination with meropenem against MBL-producing Enterobacterales (n = 62), MBL-producing P. aeruginosa (n = 9) and MBL- and class D carbapenemase-coproducing Enterobacterales (n = 5) from the strain collection at the Norwegian National Advisory Unit on Detection of Antimicrobial Resistance and (ii) in combination with meropenem, imipenem, and doripenem against globally collected MBL-producing E. coli (n = 87), K. pneumoniae (n = 85), P. aeruginosa (n = 52), and A. baumannii (n = 6), MBL- and class A/D carbapenemase-coproducing E. coli (n = 11), K. pneumoniae (n = 15) and A. baumannii (n = 7) at IHMA Europe, Sàrl, Switzerland. E. coli ATCC 25922 and P. aeruginosa ATCC 27853 were used as quality control strains. The MBL inhibitors were also tested for intrinsic antibacterial activity against the strains.

[2] = Solubility measurement in PBS; assay type: physicochemical
Protocol: The solubility of ZN148 was evaluated in PBS buffer at pH 7.4. Increasing amounts of ZN148 was dissolved in 1.0 ml at room temperature by gentle swirling of the solution in a glass vial. A total of 1.225 g of ZN148 was successfully dissolved in 1.0 ml of PBS buffer, giving a total volume of 1.8 ml. This solution was stable at 4°C for more than 6 weeks without precipitation.

NDM-1 = molecular target: T1, NDM-1 (Klebsiella pneumoniae, UniProt C7C422); experiment: Time-dependent inactivation kinetics of purified NDM-1 (imipenem); assay type: biochemical
T1 construct: made in house
Protocol: Protein expression and purification of NDM-1 and VIM-2 were performed as previously described ([36], [43], [57]). Stock solutions of purified NDM-1 and VIM-2 were prepared in 50 mM HEPES buffer (pH 7.5; Merck). Inhibition of NDM-1 and VIM-2 were determined for ZN148 and the analogues ZN222, ZN223, and ZN228 at different concentrations of inhibitor after preincubation times of 2, 8, 15, 25, and 32 min in 50 mM HEPES buffer (pH 7.5) supplemented with 1 μM ZnSO4 (Sigma-Aldrich) and bovine serum albumin (Sigma-Aldrich; final concentration, 2 μg/ml) at 25°C. Concentrations of 1 nM VIM-2 and 30 nM NDM-1 were used, and the reaction was initiated by the addition of 30 μM nitrocefin (Merck) for VIM-2 or 100 μM imipenem (Sigma-Aldrich) for NDM-1. The reaction was measured at 482 nm (VIM-2) or […] (NDM-1) in either standard 96-well plates (Thermo Fisher Scientific) for VIM-2 or UV-transparent 96-well plates (Corning, Kennebunk, ME) for NDM-1 at 25°C in a SpectraMax Plus plate reader (Molecular Devices). All of the enzyme and substrate concentrations indicated are the final concentrations in the assay. The enzyme activity as a percentage was calculated based on the initial velocity and compared to the control without inhibitor compound. All tests were performed at least in duplicates.
The observed rate constant (kobs) per inhibitor concentration was calculated from the slope of a semilog plot of the enzyme activity in percent versus preincubation time.
By fitting these values, the irreversible kinetic parameters maximum inactivation rate (kinact) and the inhibitor concentration that produces half-maximal rate of inactivation (KI) were obtained. Finally, the inhibitors were characterized by calculating kinact/KI. Where no saturation curve could be observed, KI and kinact were determined from the linear part of plot 1/kobs versus 1/[I].

T1 sequence (C7C422 29-270, looked up): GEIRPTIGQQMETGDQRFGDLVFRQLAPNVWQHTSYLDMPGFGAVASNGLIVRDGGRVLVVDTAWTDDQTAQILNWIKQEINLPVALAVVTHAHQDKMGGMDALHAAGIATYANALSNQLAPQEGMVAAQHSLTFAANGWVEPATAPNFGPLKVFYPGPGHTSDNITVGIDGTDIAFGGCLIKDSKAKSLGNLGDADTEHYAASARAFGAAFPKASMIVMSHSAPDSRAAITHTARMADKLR

## C[C@@H](O)[C@H]1C(=O)N2C(C(=O)O)=C(S[C@@H]3CN[C@H](C(=O)N(C)C)C3)[C@H](C)[C@H]12 [meropenem]
[1]; Enterobacter cloacae, KPC-2 strains, one value per strain, read-out: MIC
  MIC: 16 µg/mL
[1]; Enterobacter cloacae, KPC-3 strain, read-out: MIC
  MIC: 2 µg/mL
[1]; KPC-2 strains, one value per strain, listed as MEM
  MIC: 32 µg/mL

## CN(C[C@H](O)[C@@H](O)[C@H](O)[C@H](O)CO)C(=O)c1ccc(CN(Cc2ccccn2)Cc2ccccn2)nc1 [ZN148]
[2]; PBS buffer, pH 7.4, aqueous buffer, thermodynamic from solid, in phosphate-buffered saline [PBS]
  solubility: 1220 mg/mL (≈ 2390 mM)
[2]; at 4°C, 1.225 g in 1.0 ml PBS
  stability of the solution without precipitation: more than 6 weeks
[2]; pH 7.4, room temperature, total volume 1.8 ml
  amount dissolved in 1.0 ml of PBS buffer: 1.225 g
NDM-1
  kinact: 0.000983 s⁻¹
  kinact/KI: 3.17 M⁻¹ s⁻¹
